This is an account of results in patent publication US20200207989A1, “FLUORESCENT PROBE FOR ALDH3A1 DETECTION” (The University of Tokyo, priority 2016, published 2020).

In one series the target is T1, ALDH1A1 (Homo sapiens, UniProt P00352).
T1 construct: purchased
T1 sequence (P00352 1-501): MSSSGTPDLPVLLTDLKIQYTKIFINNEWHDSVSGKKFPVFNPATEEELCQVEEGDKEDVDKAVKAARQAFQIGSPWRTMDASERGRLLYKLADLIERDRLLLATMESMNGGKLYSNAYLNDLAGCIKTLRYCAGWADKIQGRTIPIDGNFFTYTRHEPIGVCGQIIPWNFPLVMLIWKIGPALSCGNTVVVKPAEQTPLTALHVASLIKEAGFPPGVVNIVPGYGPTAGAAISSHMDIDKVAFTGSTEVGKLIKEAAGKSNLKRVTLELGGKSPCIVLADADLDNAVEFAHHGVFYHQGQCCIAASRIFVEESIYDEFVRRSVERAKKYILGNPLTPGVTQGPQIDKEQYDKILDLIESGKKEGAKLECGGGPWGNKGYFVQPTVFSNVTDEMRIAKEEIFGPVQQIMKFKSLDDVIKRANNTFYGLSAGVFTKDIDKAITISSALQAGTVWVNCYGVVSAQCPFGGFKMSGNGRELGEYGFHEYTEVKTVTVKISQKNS
In words: Reactivity of probes to recombinant ALDH1A1 (UPLC/MS/MS detection of aldehyde and carboxylic acid forms). Particulars: 10-100 nM ALDH, 10-80 μM compound, Tris buffer pH 7.5, 30 minutes at 37° C., ◯/X not defined by a legend. The format is biochemical. As to the method:
Human recombinant ALDH1A1/1A3/3A1 was purchased, and 100 mM of KCL, 2 mM of DTT, 1 mM of NAD(P), 10-100 nM of each ALDH, and 10-80 μM of each compound were mixed in Tris buffer (100 mM, pH 7.5), reacted for 30 minutes at 37° C., an equal amount of acetonitrile added, and the reaction stopped. The reaction solution was analyzed by UPLC/MS/MS (Waters). The UPCL chromatogram was carried out over five minutes at a flow rate of 800 μL/min by a linear gradient from 5% acetonitrile 0.01 M ammonium formate/water to 95% acetonitrile 0.01 M ammonium formate/water. An aldehyde-form and carboxylic acid-form probe were detected by the absorbance at a wavelength of 504 nm, and m/z of the MS spectrum at each peak was confirmed to agree with the expected m/z.

In the next series the target is T2, ALDH3A1 (Homo sapiens, UniProt P30838).
T2 construct: purchased
T2 sequence (P30838 1-453): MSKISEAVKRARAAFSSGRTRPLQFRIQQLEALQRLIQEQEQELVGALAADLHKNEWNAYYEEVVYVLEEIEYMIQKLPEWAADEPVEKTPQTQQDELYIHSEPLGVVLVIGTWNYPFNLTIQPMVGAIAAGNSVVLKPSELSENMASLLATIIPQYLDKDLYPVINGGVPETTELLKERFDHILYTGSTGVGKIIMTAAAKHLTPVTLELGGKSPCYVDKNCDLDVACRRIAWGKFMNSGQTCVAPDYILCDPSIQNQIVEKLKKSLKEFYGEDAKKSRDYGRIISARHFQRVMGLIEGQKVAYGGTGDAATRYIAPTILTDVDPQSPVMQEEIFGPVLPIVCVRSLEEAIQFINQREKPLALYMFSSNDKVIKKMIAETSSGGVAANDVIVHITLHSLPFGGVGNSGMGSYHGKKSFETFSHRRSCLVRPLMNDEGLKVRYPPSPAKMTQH
In words: Reactivity of probes to recombinant ALDH3A1 (UPLC/MS/MS). Particulars: 10-100 nM ALDH, 10-80 μM compound, Tris buffer pH 7.5, 30 minutes at 37° C., ◯/X not defined by a legend. The format is biochemical. As to the method: Human recombinant ALDH1A1/1A3/3A1 was purchased, and 100 mM of KCL, 2 mM of DTT, 1 mM of NAD(P), 10-100 nM of each ALDH, and 10-80 μM of each compound were mixed in Tris buffer (100 mM, pH 7.5), reacted for 30 minutes at 37° C., an equal amount of acetonitrile added, and the reaction stopped. The reaction solution was analyzed by UPLC/MS/MS (Waters). The UPCL chromatogram was carried out over five minutes at a flow rate of 800 μL/min by a linear gradient from 5% acetonitrile 0.01 M ammonium formate/water to 95% acetonitrile 0.01 M ammonium formate/water.

Series [1] can be described thus: HPLC (LC/MS) retention time as measure of hydrophilicity / membrane permeability. In kind it is physicochemical. Particulars: C18 column, 20% B 2.5 min, 20%-->100% B 5 min, 500 μL/min, neutral conditions, mean±SD of three tests. As to the method: In the present invention, it is preferable to use the retention time on an HPLC chromatogram as the measure of hydrophilicity.
HPLC conditions: taking solvent A to be 0.01 M ammonium formate/water and solvent B to be 80% acetonitrile 0.01 M ammonium formate/water, chromatography is carried out under conditions of 20% solvent B for 2.5 minutes followed by a 5-minute linear gradient of solvent B from 20% to 100% (flow rate 500 μL/min).
A C18 column (HP 3 μm, inner diameter: 2.1 mm, length: 150 mm, GL Science), for example, can be used suitably as the column.
The water solubility was verified by LC/MS under neutral conditions to compare the membrane permeability of the five probes produced above and ALDEFLUOR. The reaction was stopped after advancing the reaction to the point that each probe was present as both a carboxylic acid form and an aldehyde form using a suitable isoform and concentration of ALDH, and analysis was conducted by LC/MS (Agilent 1200/6130 quadrupole LC/MS system). A C18 column (HP 3 μm, inner diameter: 2.1 mm, length: 150 mm, GL Science) was used as the column. HPLC chromatograms were carried out by 20% B for 2.5 minutes followed by a five-minute linear gradient (flow rate: 500 μL/min) from 20% to 100% B, taking solvent A to be 0.01 M ammonium formate/water and solvent B to be 80% acetonitrile 0.01 M ammonium formate/water. The probe containing BODIPY was detected by the absorbance at a wavelength of 504 nm and the probe containing TG at a wavelength of 495 nm, and m/z of the MS spectrum at each peak was confirmed to agree with the expected m/z. Three independent tests were run, and the mean±SD was calculated. […] Given that imaging of probe 1 was not successful, there was thought to be a threshold at which the membrane permeability changes rapidly between this 6.741 minutes and 7.098 minutes (band in FIG. 2).

The next series relates to OE21 cell line. In words: Cell imaging of OE21 cells against CB7 negative control. Particulars: probe 5: 40 μM, 90 minutes at 37° C., CB7 10 μM control. The format is cell-based. As to the method: 40 μM of probe 5 was added to culture medium (RPMI 1640, 10% FBS, 15 mM HEPES, phenol red-free). After culturing for 90 minutes at 37° C., the cells were washed using a chilled medium and examined under a confocal microscope. A sample with a specific ALDH3A1 inhibitor (1-[(4-fluorophenyl)sulfonyl]-2-methyl-1H-benzimidazole, CB7, 10 μM) added served as a negative control. Excitation was provided by a 488 nm laser, and observation was carried out at wavelengths of […] in detection.

“N-(4-formylbenzyl)-3-(1,3-dimethyl-4,4-difluoro-4-bora-3a,4a-diaza-s-indacen-5-yl)-propionamide [Probe 1]”: the “Reactivity to ALDH1A1” value at ALDH1A1 is given as “◯”; on ALDH1A1 (listed as Compound 1) it was “reacted with all three of the isoforms tested”. Also, the “Reactivity to ALDH3A1” value on ALDH3A1 is “◯”; on ALDH3A1 (listed as Compound 1), “reacted with all three of the isoforms tested”. Further, in series [1], the “Retention Time, Aldehyde form” value is 8.874 ± 0.000 min. The “Retention Time, carboxylate (carboxylic acid form)” value in series [1] is given as 7.098 ± 0.001 min; in series [1] (listed as probe 1), 7.098 min. Also, the “Brightness of cells in imaging compared to negative control (CB7)” value in the series on OE21 cell line is reported as “no evident difference in brightness could be found in comparison to the negative control”.
